Measured values from patent US10407381B2 (THE BOARD OF TRUSTEES OF THE UNIVERSITY OF ILLINOIS, priority 2015, dated 2019).
Where two headings read alike, the source gives them in different places.

How the values were obtained:
[1] = target: 5-HT2B (Homo sapiens, UniProt P41595); assay: Calcium flux (FLIPR) assay, human 5-HT2B stably expressed in HEK-293 (Flp-In-293) cells; settings: human 5-HT2B in HEK-293 cells; for EC50: EC50, nM 5-HT2B, NA = no activity at 10 μM; for Emax, % 5-HT 5-HT2B: normalized to 5-HT
Chain of 5-HT2B (P41595 whole entry): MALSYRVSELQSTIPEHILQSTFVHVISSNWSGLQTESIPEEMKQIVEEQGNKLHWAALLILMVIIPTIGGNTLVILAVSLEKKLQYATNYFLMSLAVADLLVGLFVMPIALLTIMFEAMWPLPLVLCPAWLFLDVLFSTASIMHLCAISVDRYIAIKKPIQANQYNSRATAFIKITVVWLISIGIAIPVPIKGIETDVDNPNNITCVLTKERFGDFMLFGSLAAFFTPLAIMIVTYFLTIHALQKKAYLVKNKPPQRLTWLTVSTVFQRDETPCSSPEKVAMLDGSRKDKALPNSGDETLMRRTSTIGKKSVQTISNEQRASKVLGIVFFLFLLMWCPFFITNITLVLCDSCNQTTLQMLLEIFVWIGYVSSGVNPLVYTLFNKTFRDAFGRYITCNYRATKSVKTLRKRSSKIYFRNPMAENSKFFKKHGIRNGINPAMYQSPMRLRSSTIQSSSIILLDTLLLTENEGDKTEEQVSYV

[2] = target: T1, human 5-HT2C-INI (Homo sapiens, UniProt P28335); assay: Calcium flux (FLIPR) assay, human 5-HT2C-INI stably expressed in HEK-293 (Flp-In-293) cells; settings: for Emax, % 5-HT 5-HT2C: normalized to 5-HT
T1 sequence (P28335 33-458): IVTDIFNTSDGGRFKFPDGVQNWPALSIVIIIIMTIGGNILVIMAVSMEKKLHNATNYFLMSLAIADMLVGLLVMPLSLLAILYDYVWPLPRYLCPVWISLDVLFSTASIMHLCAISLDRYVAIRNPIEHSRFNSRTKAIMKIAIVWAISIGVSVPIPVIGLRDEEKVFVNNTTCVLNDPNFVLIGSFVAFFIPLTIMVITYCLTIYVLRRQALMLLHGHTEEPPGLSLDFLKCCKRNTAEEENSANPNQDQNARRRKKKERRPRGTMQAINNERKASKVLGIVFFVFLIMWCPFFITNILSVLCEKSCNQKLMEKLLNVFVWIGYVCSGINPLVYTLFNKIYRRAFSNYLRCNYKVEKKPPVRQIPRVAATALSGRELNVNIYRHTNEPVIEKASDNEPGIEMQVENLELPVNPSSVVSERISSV

[3] = EC50, nM 5-HT2C, human 5-HT2C-INI in HEK-293 cells, FLIPR, NA = no activity at 10 μM
[4] = human 5-HT2C-INI in HEK-293 cells, FLIPR

Row | SMILES | EC50 [1] | Emax, % 5-HT 5-HT2B [1] | EC50 [2, 3] | Emax, % 5-HT 5-HT2C [2, 4] | EC50 ([2]; read-out: EC50, nM 5-HT2C, human 5-HT2C-INI in HEK-293 cells, FLIPR, NA = no activity at 10 μM) | EC50 ([2]; EC50, nM 5-HT2C)
1 | C#CCOc1cc(F)c(Cl)cc1C1CC1CN (single isomer, unassigned; (-)) [(−)-Example 6, (−)-(2-(5-Chloro-4-fluoro-2-(prop-2-yn-1-yloxy)phenyl)cyclopropyl)methanamine] | 4210 nM | (33%) % 5-HT | 117 nM | (92%) % 5-HT |  | 
2 | NCC1CC1c1cc(Cl)c(F)cc1OCCF (single isomer, unassigned; (-)) [(−)-Example 4, (−)-(2-(5-Chloro-4-fluoro-2-(2-fluoroethoxy)phenyl)cyclopropyl)methanamine] | 2520 nM | (26%) % 5-HT | 776 nM | (70%) % 5-HT |  | 
3 | CC(C)Oc1ccc(Cl)cc1C1CC1CN (single isomer, unassigned; (-)) [(−)-Example 14, (−)-(2-(5-Chloro-2-isopropoxyphenyl)cyclopropyl)methanamine] | 5660 nM | (19%) % 5-HT | 2480 nM | (37%) % 5-HT |  | 
4 | NCC1CC1c1c(OCCF)ccc(F)c1Cl (single isomer, unassigned; (-)) [(−)-Example 52, (−)-(2-(2-Chloro-3-fluoro-6-(2-fluoroethoxy)phenyl)cyclopropyl)methanamine] |  | (29%) % 5-HT |  | (80%) % 5-HT | 135 nM | 
5 | CCOc1ccc(F)c(Cl)c1C1CC1CN (single isomer, unassigned; (-)) [(−)-Example 51, (−)-(2-(2-Chloro-6-ethoxy-3-fluorophenyl)cyclopropyl)methanamine] | 1640 nM | (33%) % 5-HT | 38 nM | (89%) % 5-HT |  | 
6 | NCC1CC1c1cc(Cl)ccc1OCCCF (single isomer, unassigned; (-)) [(−)-Example 20, (−)-(2-(5-Chloro-2-(3-fluoropropoxy)phenyl)cyclopropyl)methanamine] | 6170 nM | (22%) % 5-HT | 1260 nM | (24%) % 5-HT |  | 
7 | NCC1CC1c1c(OCCF)ccc(Cl)c1F (single isomer, unassigned; (+)) [(+)-Example 31, (+)-(2-(3-Chloro-2-fluoro-6-(2-fluoroethoxy)phenyl)cyclopropyl)methanamine] |  | (15%) % 5-HT | 71 nM | (86%) % 5-HT |  | 
8 | NCC1CC1c1cc(Cl)ccc1OCCF (single isomer, unassigned; (-)) [(−)-Example 19, (−)-(2-(5-Chloro-2-(2-fluoroethoxy)phenyl)cyclopropyl)methanamine] | 4520 nM | (31%) % 5-HT | 1130 nM | (59%) % 5-HT |  | 
9 | NCC1CC1c1c(OCCF)ccc(Cl)c1F (single isomer, unassigned; (-)) [(−)-Example 31, (−)-(2-(3-Chloro-2-fluoro-6-(2-fluoroethoxy)phenyl)cyclopropyl)methanamine] |  | (0%) % 5-HT | 386 nM | (80%) % 5-HT |  | 
10 | NCC1CC1c1c(OCCF)ccc(Cl)c1Cl (single isomer, unassigned; (-)) [(−)-Example 38, (−)-(2-(2,3-Dichloro-6-(2-fluoroethoxy)phenyl)cyclopropyl)methanamine] | 10400 nM | (62%) % 5-HT | 224 nM | (85%) % 5-HT |  | 
11 | C=CCOc1ccc(Cl)cc1C1CC1CN (single isomer, unassigned; (+)) [(+)-Example 23, (+)-(2-(2-(Allyloxy)-5-chlorophenyl)cyclopropyl)methanamine] | 2210 nM | (32%) % 5-HT | 60 nM | (80%) % 5-HT |  | 
12 | C=CCOc1cc(F)c(Cl)cc1C1CC1CN (single isomer, unassigned; (+)) [(+)-Example 5, (+)-(2-(2-(Allyloxy)-5-chloro-4-fluorophenyl)cyclopropyl)methanamine] | 1000 nM | (44%) % 5-HT | 42 nM | (87%) % 5-HT |  | 
13 | NCC1CC1c1cc(Cl)ccc1OCCCF (single isomer, unassigned; (+)) [(+)-Example 20, (+)-(2-(5-Chloro-2-(3-fluoropropoxy)phenyl)cyclopropyl)methanamine] | 4910 nM | (22%) % 5-HT | 206 nM | (60%) % 5-HT |  | 
14 | C=CCOc1cc(F)c(Cl)cc1C1CC1CN (single isomer, unassigned; (-)) [(−)-Example 5, (−)-(2-(2-(Allyloxy)-5-chloro-4-fluorophenyl)cyclopropyl)methanamine] | 1960 nM | (22%) % 5-HT | 308 nM | (77%) % 5-HT |  | 
15 | C=CCOc1cc(Cl)c(Cl)cc1C1CC1CN (single isomer, unassigned; (-)) [(−)-Example 35, (−)-(2-(2-(Allyloxy)-4,5-dichlorophenyl)cyclopropyl)methanamine] |  | (14%) % 5-HT | 278 nM | (84%) % 5-HT |  | 
16 | C#CCOc1ccc(Cl)cc1C1CC1CN (single isomer, unassigned; (-)) [(−)-Example 26, (−)-(2-(5-Chloro-2-(prop-2-yn-1-yloxy)phenyl)cyclopropyl)methanamine] | 4410 nM | (30%) % 5-HT | 365 nM | (71%) % 5-HT |  | 
17 | C=CCOc1ccc(F)c(F)c1C1CC1CN (single isomer, unassigned; (-)) [(−)-Example 49, (−)-(2-(6-(Allyloxy)-2,3-difluorophenyl)cyclopropyl)methanamine] | 4460 nM | (26%) % 5-HT | 151 nM | (89%) % 5-HT |  | 
18 | COCCOc1ccc(Cl)cc1C1CC1CN (single isomer, unassigned; (-)) [(−)-Example 17, (−)-(2-(5-Chloro-2-(2-methoxyethoxy)phenyl)cyclopropyl)methanamine] | 5300 nM | (32%) % 5-HT | 667 nM | (45%) % 5-HT |  | 
19 | CCOc1ccc(Cl)cc1C1CC1CN (single isomer, unassigned; (-)) [(−)-Example 11, (−)-(2-(5-Chloro-2-ethoxyphenyl)cyclopropyl)methanamine] | 2310 nM | (26%) % 5-HT | 646 nM | (72%) % 5-HT |  | 
20 | CCCOc1cc(F)c(F)cc1C1CC1CN (single isomer, unassigned; (-)) [(−)-Example 43, (−)-(2-(4,5-Difluoro-2-propoxyphenyl)cyclopropyl)methanamine] | 2970 nM | (13%) % 5-HT |  | (89%) % 5-HT |  | 119 nM
21 | C=CCOc1ccc(F)c(F)c1C1CC1CN (single isomer, unassigned; (+)) [(+)-Example 49, (+)-(2-(6-(Allyloxy)-2,3-difluorophenyl)cyclopropyl)methanamine] | 3340 nM | (35%) % 5-HT | 36 nM | (100%) % 5-HT |  | 
